Experimental data reported in patent publication US11028051B2, “Tetrahydroquinoline-based bromodomain inhibitors” (St. Jude Children's Research Hospital, priority 2016, dated 2021).

Experiments:
Test in all cases: competitive TR-FRET assay, BET-BD with acetylated peptide ligand
Format in all cases: binding
BRD4-BD2 = BRD4-BD2 (Homo sapiens (Human), UniProt O60885); conditions: BRD4-BD2; Table 11 additional modifications; read-out: 4.2 EC50
Protocol: (§1) Inhibitor potency was determined using a competitive TR-FRET assay as detailed herein, measuring interaction of the respective BET-BD with an acetylated peptide ligand (Table 2).

BRD2-BD2 = BRD2-BD2 (Homo sapiens (Human), UniProt P25440); conditions: for EC50: BRD2-BD2, Table 11 additional modifications, read-out: 2.2 EC50; for 2.1/2.2: ratio of BRD2-BD1 EC50 to BRD2-BD2 EC50 (selectivity)
Protocol: as §1

BRD4-BD1 = BRD4-BD1 (Homo sapiens (Human), UniProt O60885); conditions: BRD4-BD1; Table 11 additional modifications; read-out: 4.1 EC50
Protocol: as §1

BRD2-BD1 = BRD2-BD1 (Homo sapiens (Human), UniProt P25440); conditions: BRD2-BD1; Table 11 additional modifications; read-out: 2.1 EC50
Protocol: as §1

BRD3-BD1 = BRD3-BD1 (Homo sapiens (Human), UniProt Q15059); conditions: BRD3-BD1; Table 11 additional modifications; read-out: 3.1 EC50
Protocol: as §1

BRDT = BRDT (Homo sapiens, UniProt Q58F21); conditions: BRDT; Table 11 additional modifications; read-out: BRDT EC50
Protocol: as §1

BRD3-BD1, sequence (Q15059 34-140): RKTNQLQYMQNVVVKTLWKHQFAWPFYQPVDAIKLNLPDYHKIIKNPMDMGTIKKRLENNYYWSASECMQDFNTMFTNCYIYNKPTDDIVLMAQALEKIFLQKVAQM
BRD2-BD1, sequence (P25440 74-180): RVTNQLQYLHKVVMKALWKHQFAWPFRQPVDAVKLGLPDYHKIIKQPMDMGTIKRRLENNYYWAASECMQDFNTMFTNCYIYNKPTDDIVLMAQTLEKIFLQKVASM
BRD2-BD2, sequence (P25440 344-453): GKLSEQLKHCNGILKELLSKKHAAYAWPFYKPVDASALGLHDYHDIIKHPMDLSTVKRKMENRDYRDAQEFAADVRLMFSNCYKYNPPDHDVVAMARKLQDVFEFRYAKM

Row | Structure (SMILES) | EC50 (BRD4-BD2) | EC50 (BRD2-BD2) | 2.1/2.2 (BRD2-BD2) | EC50 (BRD4-BD1) | EC50 (BRD2-BD1) | EC50 (BRD3-BD1) | EC50 (BRDT)
1 | CC(=O)N1c2ccc(-c3cccc(N)c3)cc2[C@H](NC(=O)OC(C)C)C[C@@H]1C [compound 2] | 0.64 µM | 110 nM | 6.6 | 1.88 µM | 730 nM | 250 nM | 
2 | CC(=O)Nc1cccc(-c2ccc3c(c2)[C@H](NC(=O)C(C)C)C[C@H](C)N3C(C)=O)c1 [compound 65] | 7.8 µM |  | 1.4 |  |  |  | 
3 | CC(=O)Nc1cccc(-c2ccc3c(c2)[C@H](NC(=O)C(C)C)C[C@H](C)N3C(C)=O)c1 [compound 71] | 11 µM |  | 4.9 |  |  |  | 
4 | CC(=O)N1c2ccc(-c3cccc(NCCC(C)C)c3)cc2[C@H](NC(=O)OC(C)C)C[C@@H]1C [compound 100] |  | 40000 nM | 7.3 | 6 µM | 3800 nM | 690 nM | 40 µM
5 | CCCC(=O)Nc1cccc(-c2ccc3c(c2)[C@H](NC(=O)OC(C)C)C[C@H](C)N3C(C)=O)c1 [compound 101] |  | 110 nM | 3.3 | 0.95 µM | 1100 nM | 340 nM | 1.3 µM
6 | CC(=O)N1c2ccc(-c3cccc(NC(=O)C4CCC(C)CC4)c3)cc2[C@H](NC(=O)OC(C)C)C[C@@H]1C (stereo partly drawn) [compound 102] |  | 430 nM | 40 | 3.8 µM | 4800 nM | 530 nM | 1.2 µM
7 | CC(=O)N1c2ccc(-c3cccc(NCc4ccc(C)cc4)c3)cc2[C@H](NC(=O)OC(C)C)C[C@@H]1C [compound 103] |  | 2800 nM | 13 | 3.5 µM | 3700 nM | 890 nM | 4.8 µM
8 | CC(=O)N1c2ccc(-c3cccc(NC(=O)CC(C)C)c3)cc2[C@H](NC(=O)OC(C)C)C[C@@H]1C [compound 104] |  | 290 nM | 7.8 | 0.94 µM | 1600 nM | 410 nM | 1.6 µM
9 | CC(=O)N1c2ccc(-c3cccc(NCC4CCOC4)c3)cc2[C@H](NC(=O)OC(C)C)C[C@@H]1C (stereo partly drawn) [compound 105] |  | 30 nM | 0.095 | 0.2 µM | 400 nM | 100 nM | 1.1 µM
10 | CC(=O)N1c2ccc(-c3cccc(NCCC(C)(C)C)c3)cc2[C@H](NC(=O)OC(C)C)C[C@@H]1C [compound 106] |  | 43000 nM | 10 | 3.3 µM | 3900 nM | 980 nM | 7 µM
11 | CC(=O)N1c2ccc(-c3cccc(NC(=O)c4ccccc4)c3)cc2[C@H](NC(=O)OC(C)C)C[C@@H]1C [compound 107] |  | 160 nM | 11 | 0.81 µM | 1200 nM | 170 nM | 0.49 µM
12 | CC(=O)N1c2ccc(-c3cccc(NCC4CC4)c3)cc2[C@H](NC(=O)OC(C)C)C[C@@H]1C [compound 108] |  | 360 nM | 1.3 | 1.7 µM | 2500 nM | 370 nM | 59 µM
13 | CC(=O)N1c2ccc(-c3cccc(NCCCc4ccccc4)c3)cc2[C@H](NC(=O)OC(C)C)C[C@@H]1C [compound 109] |  | 280 nM | 5.6 | > 11 µM | 11000 nM | 670 nM | 11 µM
14 | CC(=O)N1c2ccc(-c3cccc(NC(=O)Cc4ccccc4)c3)cc2[C@H](NC(=O)OC(C)C)C[C@@H]1C [compound 110] |  | 120 nM | 14 | 1.1 µM | 1300 nM | 230 nM | 1.6 µM
15 | CCCNc1cccc(-c2ccc3c(c2)[C@H](NC(=O)OC(C)C)C[C@H](C)N3C(C)=O)c1 [compound 111] |  | 520 nM | 0.091 | 1.8 µM | 1900 nM | 650 nM | 3.9 µM

Results, then the compound that gave them:

Row | EC50 (BRD4-BD2) | EC50 (BRD2-BD2) | 2.1/2.2 (BRD2-BD2) | EC50 (BRD4-BD1) | EC50 (BRD2-BD1) | EC50 (BRD3-BD1) | EC50 (BRDT) | Structure (SMILES)
16 |  | 2500 nM | 3.6 | 5 µM | 7200 nM | 2100 nM | 4.4 µM | CC(=O)N1c2ccc(-c3cccc(NCC4CCCCC4)c3)cc2[C@H](NC(=O)OC(C)C)C[C@@H]1C [compound 112]
17 |  | 110 nM | 4.8 | 1.4 µM | 2200 nM | 410 nM | 7.5 µM | CC(=O)N1c2ccc(-c3cccc(NC(=O)C(C)(C)C)c3)cc2[C@H](NC(=O)OC(C)C)C[C@@H]1C [compound 113]
18 |  | 50 nM | 9.1 | 0.47 µM | 790 nM | 120 nM | 52 µM | CCCCNc1cccc(-c2ccc3c(c2)[C@H](NC(=O)OC(C)C)C[C@H](C)N3C(C)=O)c1 [compound 114]
19 |  | 40 nM | 7.2 | 0.16 µM | 370 nM | 90 nM | 0.33 µM | CCC(=O)Nc1cccc(-c2ccc3c(c2)[C@H](NC(=O)OC(C)C)C[C@H](C)N3C(C)=O)c1 [compound 115]
20 |  | 380 nM | 7.0 | 2.3 µM | 1200 nM | 280 nM | 1.2 µM | CC(=O)N1c2ccc(-c3cccc(NC(=O)CCc4ccccc4)c3)cc2[C@H](NC(=O)OC(C)C)C[C@@H]1C [compound 116]
21 |  | 100 nM | 39 | 0.52 µM | 600 nM | 230 nM | 1.2 µM | CC(=O)N1c2ccc(-c3cccc(NCc4ccccc4)c3)cc2[C@H](NC(=O)OC(C)C)C[C@@H]1C [compound 117]
22 |  |  | 44 | > 30 µM | 2200 nM | 3000 nM | 3.3 µM | COC(=O)c1ccc(N[C@@H]2C[C@H](C)N(C(C)=O)c3ccc(-c4cccc(NC(C)=O)c4)cc32)c(C)c1 [compound 160]
23 |  | 44 nM | 20 | > 30 µM | 870 nM | > 30000 nM | 0.76 µM | COC(=O)c1ccc(N[C@@H]2C[C@H](C)N(C(C)=O)c3ccc(-c4cccc(NC(C)=O)c4)cc32)c(OC)c1 [compound 161]
24 |  | 220 nM | 100 | 57 µM | 22000 nM | 30000 nM | 32 µM | CCCCOc1cccc(-c2ccc3c(c2)[C@H](Nc2ccc(C(=O)OC)cc2)C[C@H](C)N3C(C)=O)c1 [compound 164]
25 |  | 20 nM | 6.5 | 0.64 µM | 130 nM | 150 nM | 0.28 µM | COC(=O)c1ccc(N[C@@H]2C[C@H](C)N(C(C)=O)c3ccc(-c4cccc(OCCN5CCOCC5)c4)cc32)cc1 [compound 166]
26 |  | 2100 nM | 16 | > 70 µM | > 70000 nM | > 70000 nM | > 70 µM | CCCOc1cccc(-c2ccc3c(c2)[C@H](Nc2ccccc2OC(F)(F)F)C[C@H](C)N3C(C)=O)c1 [compound 167]
27 |  | 1200 nM | 99 | > 57 µM | 35000 nM | 45000 nM | 39 µM | CCCOc1cccc(-c2ccc3c(c2)[C@H](Nc2ccc(F)cc2OC)C[C@H](C)N3C(C)=O)c1 [compound 168]
28 |  | 140 nM | 6.5 | > 26 µM | 3100 nM | 14000 nM | 4.9 µM | COc1cc(F)ccc1N[C@@H]1C[C@H](C)N(C(C)=O)c2ccc(-c3cc[nH]n3)cc21 [compound 170]
29 |  | 440 nM | 140 | 31 µM | > 53000 nM | 23000 nM | > 53 µM | CC(=O)N1c2ccc(-c3cc[nH]n3)cc2[C@H](Nc2ccccc2OC(F)(F)F)C[C@@H]1C [compound 171]
30 |  | 640 nM | 6.3 | 17 µM | 8200 nM | 12000 nM | 12 µM | CC(=O)N1c2ccc(-c3ccn(C)n3)cc2[C@H](Nc2ccccc2OC(F)(F)F)C[C@@H]1C [compound 172]
31 |  | 170 nM | 8.2 | 3.8 µM | 1400 nM | 1500 nM | 2 µM | COc1cc(F)ccc1N[C@@H]1C[C@H](C)N(C(C)=O)c2ccc(-c3ccn(C)n3)cc21 [compound 173]
32 |  | 40 nM | 58 | > 15 µM | 900 nM | 1100 nM | 1.2 µM | CC(=O)Nc1cccc(-c2ccc3c(c2)[C@H](Nc2ccc(C(=O)N(C)C)cc2)C[C@H](C)N3C(C)=O)c1 [compound 174]
33 |  | 100 nM | 27 | 5.5 µM | 2700 nM | 1700 nM | 2.9 µM | CC(=O)Nc1cccc(-c2ccc3c(c2)[C@H](Nc2ccc(S(=O)(=O)N(C)C)cc2)C[C@H](C)N3C(C)=O)c1 [compound 175]
34 |  | 750 nM | 30 | 16 µM | 10000 nM | 8500 nM | 13 µM | CC(=O)Nc1cccc(-c2ccc3c(c2)[C@H](Nc2ccc(C(=O)OC(C)(C)C)cc2)C[C@H](C)N3C(C)=O)c1 [compound 176]
